Results published in patent US20140058103A1, “Inhibitors of PI3K-Delta and Methods of Their Use and Manufacture” (Exelixis, Inc., priority 2010, published 2014).

Molecular target: PI3K delta (Homo sapiens, UniProt O00329)
Experiment: Luciferase-coupled chemiluminescence kinase assay (ATP consumption, KinaseGlo)
Format: biochemical
Summary of the method: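 Compound, kinase and ATP (≤ KM) reacted 2 h at ambient temperature, then remaining ATP quantified with luciferase-luciferin (KinaseGlo) luminescence as percent consumed.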

Sequence of PI3K delta (O00329 whole entry): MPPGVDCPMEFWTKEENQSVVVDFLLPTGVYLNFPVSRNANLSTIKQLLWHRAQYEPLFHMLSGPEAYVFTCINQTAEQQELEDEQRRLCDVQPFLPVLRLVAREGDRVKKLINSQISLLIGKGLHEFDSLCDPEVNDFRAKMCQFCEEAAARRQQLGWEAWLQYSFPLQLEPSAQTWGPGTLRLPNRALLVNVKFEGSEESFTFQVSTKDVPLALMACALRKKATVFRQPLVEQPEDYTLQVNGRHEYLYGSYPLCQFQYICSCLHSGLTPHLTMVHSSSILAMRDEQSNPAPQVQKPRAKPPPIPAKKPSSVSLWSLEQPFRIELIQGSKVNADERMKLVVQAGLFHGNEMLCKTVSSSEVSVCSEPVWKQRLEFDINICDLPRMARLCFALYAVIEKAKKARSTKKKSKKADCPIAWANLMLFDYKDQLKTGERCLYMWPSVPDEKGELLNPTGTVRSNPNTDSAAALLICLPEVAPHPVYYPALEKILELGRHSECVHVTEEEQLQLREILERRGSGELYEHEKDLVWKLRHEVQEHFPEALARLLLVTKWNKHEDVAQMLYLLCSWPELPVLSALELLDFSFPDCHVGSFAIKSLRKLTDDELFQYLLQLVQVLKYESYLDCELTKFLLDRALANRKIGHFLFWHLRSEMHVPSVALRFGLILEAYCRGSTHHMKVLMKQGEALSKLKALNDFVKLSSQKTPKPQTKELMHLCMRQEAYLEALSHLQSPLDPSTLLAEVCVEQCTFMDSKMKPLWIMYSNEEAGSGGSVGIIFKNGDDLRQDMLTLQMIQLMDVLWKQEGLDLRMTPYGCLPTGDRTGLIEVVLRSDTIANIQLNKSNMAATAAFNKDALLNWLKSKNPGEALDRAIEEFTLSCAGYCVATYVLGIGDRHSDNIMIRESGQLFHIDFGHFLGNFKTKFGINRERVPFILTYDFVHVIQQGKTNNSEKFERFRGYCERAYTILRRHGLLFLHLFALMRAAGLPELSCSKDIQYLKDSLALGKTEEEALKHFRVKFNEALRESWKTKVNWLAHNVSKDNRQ
Sequence of PI3K delta (P27986 whole entry partner): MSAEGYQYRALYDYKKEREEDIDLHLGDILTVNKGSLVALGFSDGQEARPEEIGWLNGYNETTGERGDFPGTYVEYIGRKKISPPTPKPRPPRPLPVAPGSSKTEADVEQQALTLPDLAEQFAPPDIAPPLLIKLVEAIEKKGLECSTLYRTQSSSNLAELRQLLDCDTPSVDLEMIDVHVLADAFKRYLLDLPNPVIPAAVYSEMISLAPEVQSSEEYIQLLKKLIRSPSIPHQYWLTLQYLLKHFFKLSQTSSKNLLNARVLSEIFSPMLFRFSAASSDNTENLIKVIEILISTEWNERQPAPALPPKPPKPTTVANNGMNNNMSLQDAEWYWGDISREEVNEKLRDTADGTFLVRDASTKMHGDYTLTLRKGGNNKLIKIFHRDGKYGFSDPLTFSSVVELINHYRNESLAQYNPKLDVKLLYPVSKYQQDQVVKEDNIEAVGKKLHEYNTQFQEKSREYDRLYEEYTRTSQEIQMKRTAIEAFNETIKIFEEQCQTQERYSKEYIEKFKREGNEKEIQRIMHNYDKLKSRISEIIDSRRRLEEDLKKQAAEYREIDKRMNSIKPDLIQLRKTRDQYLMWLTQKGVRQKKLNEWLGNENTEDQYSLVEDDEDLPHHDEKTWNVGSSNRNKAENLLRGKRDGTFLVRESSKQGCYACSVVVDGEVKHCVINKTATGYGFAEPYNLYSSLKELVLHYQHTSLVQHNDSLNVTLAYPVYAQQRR

Row | Compound | IC50 [µM]
1 | CCn1c(-c2cnn(C)c2)nc2c(N3CCC(n4c(=O)[nH]c5ncccc54)CC3)ncnc21 [Compound 323, 1-{1-[9-ethyl-8-(1-methyl-1H-pyrazol-4-yl)-9H-purin-6-yl]piperidin-4-yl}-1,3-dihydro-2H-imidazo[4,5-b]pyridin-2-one] | < 0.05
2 | CC(C)n1cc(-c2nc3c(N4CCC(n5c(=O)[nH]c6ccccc65)CC4)ncnc3n2C)cn1 [Compound 152, 1-(1-{9-methyl-8-[1-(1-methylethyl)-1H-pyrazol-4-yl]-9H-purin-6-yl}piperidin-4-yl)-1,3-dihydro-2H-benzimidazol-2-one] | < 0.05
3 | CCn1c(C(=O)NCC(C)(C)C)nc2c(N3CCC4(CC3)C(=O)Nc3ccccc34)ncnc21 [Compound 217, N-(2,2-dimethylpropyl)-9-ethyl-6-(2-oxo-1,2-dihydro-1′H-spiro[indole-3,4′-piperidin]-1′-yl)-9H-purine-8-carboxamide] | < 0.05
4 | Cn1c(C(=O)NC2CCc3ccccc32)nc2c(N3CCC(n4c(=O)[nH]c5ccccc54)CC3)ncnc21 (centres unmarked) [Compound 47, N-(2,3-dihydro-1H-inden-1-yl)-9-methyl-6-[4-(2-oxo-2,3-dihydro-1H-benzimidazol-1-yl)piperidin-1-yl]-9H-purine-8-carboxamide] | 0.05 to 0.25
5 | Cc1c(-c2nc3c(N4CCC(n5c(=O)[nH]c6ccccc65)CC4)ncnc3n2C)cnn1C [Compound 241, 1-{1-[8-(1,5-dimethyl-1H-pyrazol-4-yl)-9-methyl-9H-purin-6-yl]piperidin-4-yl}-1,3-dihydro-2H-benzimidazol-2-one] | < 0.05

Other lines, results leading:

Row | IC50 [µM] | Compound
6 | 0.05 to 0.25 | Cn1c(C(=O)N2CC(O)C2)nc2c(N3CCC4(CC3)C(=O)Nc3ccccc34)ncnc21 [Compound 41, 1′-{8-[(3-hydroxyazetidin-1-yl)carbonyl]-9-methyl-9H-purin-6-yl}spiro[indole-3,4′-piperidin]-2(1H)-one]
7 | 0.25 to 0.5 | Cn1c(C(=O)NC2CCc3ccccc32)nc2c(N3CCC4(CC3)C(=O)Nc3ccccc34)ncnc21 (centres unmarked) [Compound 18, N-(2,3-dihydro-1H-inden-1-yl)-9-methyl-6-(2-oxo-1,2-dihydro-1′H-spiro[indole-3,4′-piperidin]-1′-yl)-9H-purine-8-carboxamide]
8 | 0.5 to 1.5 | Cn1c(C(=O)NCC2CC2)nc2c(N3CCC4(CC3)NC(=O)c3ccccc34)ncnc21 [Compound 142, N-(cyclopropylmethyl)-9-methyl-6-(3-oxo-2,3-dihydro-1′H-spiro[isoindole-1,4′-piperidir]-1′-yl)-9H-purine-8-carboxamide]
